The values that follow come from ChEMBL document CHEMBL4385605, “Synthesis and Structure-Affinity Relationships of Spirocyclic Benzopyrans with Exocyclic Amino Moiety” (J Med Chem, 2019).

One series concerns the target Cytochrome P450 3A4 (Homo sapiens, UniProt P08684). Kind of series: Inhibition of recombinant human CYP3A4 at 1 uM by fluorescence assay. The class given is ADME. The conditions noted are these: recombinant enzyme.
Another series has as its target T1, Cytochrome P450 1A2 (Homo sapiens, UniProt P05177).
T1 sequence (P05177 whole entry): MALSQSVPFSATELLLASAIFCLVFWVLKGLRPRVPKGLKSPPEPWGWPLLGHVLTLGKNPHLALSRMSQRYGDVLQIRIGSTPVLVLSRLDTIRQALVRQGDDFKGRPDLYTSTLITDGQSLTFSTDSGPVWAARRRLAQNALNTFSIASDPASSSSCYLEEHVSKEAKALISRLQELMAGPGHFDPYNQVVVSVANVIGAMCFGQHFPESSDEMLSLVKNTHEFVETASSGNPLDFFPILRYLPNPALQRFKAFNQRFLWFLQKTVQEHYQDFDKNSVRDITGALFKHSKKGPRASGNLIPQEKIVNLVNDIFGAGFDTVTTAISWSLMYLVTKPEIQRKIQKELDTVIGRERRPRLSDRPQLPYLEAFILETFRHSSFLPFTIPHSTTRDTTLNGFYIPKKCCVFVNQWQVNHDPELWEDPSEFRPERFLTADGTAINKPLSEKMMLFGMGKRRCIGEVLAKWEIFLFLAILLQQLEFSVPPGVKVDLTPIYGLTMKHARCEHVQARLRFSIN
Kind of series: Inhibition of recombinant human CYP1A2 at 1 uM by fluorescence assay. The conditions noted are these: recombinant enzyme. The class given is ADME.

Series [1] addresses Sigma non-opioid intracellular receptor 1 (Cavia porcellus, UniProt Q60492). Kind of series: Displacement of [3H](+)-pentazocine from sigma 1 receptor in guinea pig brain cortex membranes after 120 mins by scintillation counting analysis. The class given is cell membranes. (In general: Loss of bound radioactivity is the signal in a displacement assay; it reports binding, not function.)

In series [2] the target is Delta-type opioid receptor (Rattus norvegicus, UniProt P33533). In words: Displacement of [3H]DPDPE from delta opioid receptor in rat membranes after 120 mins by scintillation counting analysis. It is filed as cell membranes.
Sequence of Delta-type opioid receptor (P33533 whole entry): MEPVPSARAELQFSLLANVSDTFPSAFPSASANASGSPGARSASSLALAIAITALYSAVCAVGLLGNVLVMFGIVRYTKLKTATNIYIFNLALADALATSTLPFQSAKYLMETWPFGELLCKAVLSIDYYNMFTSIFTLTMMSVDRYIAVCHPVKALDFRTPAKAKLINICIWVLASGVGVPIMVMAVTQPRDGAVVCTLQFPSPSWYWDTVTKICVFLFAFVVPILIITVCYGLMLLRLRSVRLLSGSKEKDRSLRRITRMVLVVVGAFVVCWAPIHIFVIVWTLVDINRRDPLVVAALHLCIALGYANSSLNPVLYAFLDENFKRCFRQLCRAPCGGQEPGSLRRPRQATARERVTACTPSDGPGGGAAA
In series [3] the test system is HepG2. Kind of series: Cytotoxicity against human HepG2 cells at 1 to 100 uM incubated for 20 hrs under serum free condition by MTT assay. It is filed as cell-based. The conditions noted are these: hepg2, 20 h.
In series [4] the target is Sigma intracellular receptor 2 (Homo sapiens, UniProt Q5BJF2). Kind of series: Displacement of [3H]-di-o-tolylguanidine from sigma2 receptor in human RT4 cell membranes incubated for 120 mins in the presence of sigma1 receptor ligand (+)-pentazocine by scintillation counting method.
Sequence of Sigma intracellular receptor 2 (Homo sapiens, UniProt Q5BJF2) (Q5BJF2 whole entry): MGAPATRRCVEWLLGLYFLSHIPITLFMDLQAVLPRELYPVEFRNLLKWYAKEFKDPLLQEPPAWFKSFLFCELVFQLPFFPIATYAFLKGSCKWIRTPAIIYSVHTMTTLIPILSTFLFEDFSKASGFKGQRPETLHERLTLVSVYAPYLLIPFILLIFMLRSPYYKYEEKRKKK
The target of series [5] is Sodium-dependent serotonin transporter (Homo sapiens) (UniProt P31645). In words: Binding affinity to serotonin transporter (unknown origin) at 1 uM.
Sequence of Sodium-dependent serotonin transporter (Homo sapiens) (P31645 whole entry, looked up): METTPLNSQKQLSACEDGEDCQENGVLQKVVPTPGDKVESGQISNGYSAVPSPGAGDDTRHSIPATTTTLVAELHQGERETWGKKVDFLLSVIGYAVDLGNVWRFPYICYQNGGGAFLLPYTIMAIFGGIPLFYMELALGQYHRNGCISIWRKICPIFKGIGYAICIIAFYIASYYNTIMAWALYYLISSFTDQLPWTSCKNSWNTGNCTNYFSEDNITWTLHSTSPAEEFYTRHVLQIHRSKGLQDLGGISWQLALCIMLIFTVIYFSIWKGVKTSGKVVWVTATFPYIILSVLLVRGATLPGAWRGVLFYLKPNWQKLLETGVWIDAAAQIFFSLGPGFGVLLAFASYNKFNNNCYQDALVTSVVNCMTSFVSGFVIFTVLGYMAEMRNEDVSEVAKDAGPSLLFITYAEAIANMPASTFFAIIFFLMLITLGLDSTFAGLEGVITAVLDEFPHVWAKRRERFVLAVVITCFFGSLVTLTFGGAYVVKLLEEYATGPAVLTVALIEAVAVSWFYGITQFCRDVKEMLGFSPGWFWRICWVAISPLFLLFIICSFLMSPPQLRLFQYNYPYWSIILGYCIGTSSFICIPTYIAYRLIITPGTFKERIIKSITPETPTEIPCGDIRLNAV
Series [6] is described as follows: Metabolic stability in human liver microsomes assessed as parent compound remaining at 1 uM in the presence of NADPH regenerating system after 60 mins by UPLC/MS analysis. The class given is ADME, Microsome. The conditions noted are these: read-out: Stability. (Liver microsomes are a subcellular fraction often used to study metabolism.)
Series [7] concerns the target Sigma non-opioid intracellular receptor 1 (Rattus norvegicus) (UniProt Q9R0C9). Kind of series: Agonist activity at sigma 1 receptor in rat PC12 cells assessed as effect on KCl-induced intracellular calcium flux by fura-2-AM dye based fluorescence assay. It is filed as cell-based.
For series [8], the target named is 5-hydroxytryptamine receptor 2B (Homo sapiens) (UniProt P41595). In words: Binding affinity to 5-HT2BR (unknown origin) at 1 uM relative to control.
Sequence of 5-hydroxytryptamine receptor 2B (Homo sapiens) (P41595 whole entry): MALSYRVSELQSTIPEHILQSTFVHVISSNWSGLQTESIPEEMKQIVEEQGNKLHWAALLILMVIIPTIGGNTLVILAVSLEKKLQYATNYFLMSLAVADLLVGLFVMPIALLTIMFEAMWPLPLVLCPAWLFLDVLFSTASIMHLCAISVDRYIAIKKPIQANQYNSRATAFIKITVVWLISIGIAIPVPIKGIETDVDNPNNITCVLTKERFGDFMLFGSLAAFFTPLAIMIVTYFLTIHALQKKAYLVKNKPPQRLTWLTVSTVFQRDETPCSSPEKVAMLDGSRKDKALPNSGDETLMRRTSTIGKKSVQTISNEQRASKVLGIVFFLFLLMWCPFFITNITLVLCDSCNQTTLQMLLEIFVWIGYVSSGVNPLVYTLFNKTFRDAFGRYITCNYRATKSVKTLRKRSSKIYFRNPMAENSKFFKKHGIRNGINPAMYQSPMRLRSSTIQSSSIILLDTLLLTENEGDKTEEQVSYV
Series [9] in a line: Selectivity ratio of Ki for displacement of [3H]DTG from sigma2 receptor in rat liver membranes to Ki for displacement of (+)-[3H]pentazocine from sigma 1 receptor in guinea pig brain cortex membranes. It is filed as cell membranes.
In series [10] the target is T2, Sigma intracellular receptor 2 (Rattus norvegicus, UniProt Q5U3Y7).
T2 sequence (Q5U3Y7 whole entry): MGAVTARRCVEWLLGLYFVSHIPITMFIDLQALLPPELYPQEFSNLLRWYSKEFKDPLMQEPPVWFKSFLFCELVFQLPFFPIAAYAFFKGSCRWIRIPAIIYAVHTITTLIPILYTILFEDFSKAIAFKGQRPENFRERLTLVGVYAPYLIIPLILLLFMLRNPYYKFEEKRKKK
Kind of series: Displacement of [3H]-di-o-tolylguanidine from sigma2 receptor in rat liver membranes incubated for 120 mins in the presence of sigma1 receptor ligand (+)-pentazocine by scintillation counting method. It is filed as cell membranes.

Series [11] has as its target Sodium-dependent dopamine transporter (Homo sapiens) (UniProt Q01959). In words: Binding affinity to dopamine transporter (unknown origin) at 1 uM.
Another series concerns the target CYP2D6 (Homo sapiens, UniProt P10635). Kind of series: Inhibition of recombinant human CYP2D6 at 1 uM by fluorescence assay relative to control. The class given is ADME.
Series [12] deals with Kappa-type opioid receptor (Cavia porcellus) (UniProt P41144). In words: Displacement of [3H]U69,593 from kappa opioid receptor in guinea pig brain membrane at 1 uM after 120 mins by scintillation counting analysis relative to control. The class given is cell membranes.
Sequence of Kappa-type opioid receptor (Cavia porcellus) (P41144 whole entry): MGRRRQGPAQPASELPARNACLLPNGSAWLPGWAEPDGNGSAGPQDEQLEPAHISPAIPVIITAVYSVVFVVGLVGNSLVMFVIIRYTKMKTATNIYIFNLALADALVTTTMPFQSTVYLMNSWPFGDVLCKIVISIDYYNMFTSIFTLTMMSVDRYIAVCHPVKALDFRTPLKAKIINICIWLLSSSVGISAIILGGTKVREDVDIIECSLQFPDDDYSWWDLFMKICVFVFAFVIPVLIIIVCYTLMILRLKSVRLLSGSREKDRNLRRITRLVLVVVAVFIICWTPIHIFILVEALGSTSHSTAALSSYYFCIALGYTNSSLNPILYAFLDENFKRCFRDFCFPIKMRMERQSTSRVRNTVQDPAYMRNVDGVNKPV
For another series, the target named is Cytochrome P450 2C9 (Homo sapiens, UniProt P11712). In words: Inhibition of recombinant human CYP2C9 at 1 uM by fluorescence assay. It is filed as ADME. Particulars: recombinant enzyme.
Sequence of Cytochrome P450 2C9 (P11712 whole entry): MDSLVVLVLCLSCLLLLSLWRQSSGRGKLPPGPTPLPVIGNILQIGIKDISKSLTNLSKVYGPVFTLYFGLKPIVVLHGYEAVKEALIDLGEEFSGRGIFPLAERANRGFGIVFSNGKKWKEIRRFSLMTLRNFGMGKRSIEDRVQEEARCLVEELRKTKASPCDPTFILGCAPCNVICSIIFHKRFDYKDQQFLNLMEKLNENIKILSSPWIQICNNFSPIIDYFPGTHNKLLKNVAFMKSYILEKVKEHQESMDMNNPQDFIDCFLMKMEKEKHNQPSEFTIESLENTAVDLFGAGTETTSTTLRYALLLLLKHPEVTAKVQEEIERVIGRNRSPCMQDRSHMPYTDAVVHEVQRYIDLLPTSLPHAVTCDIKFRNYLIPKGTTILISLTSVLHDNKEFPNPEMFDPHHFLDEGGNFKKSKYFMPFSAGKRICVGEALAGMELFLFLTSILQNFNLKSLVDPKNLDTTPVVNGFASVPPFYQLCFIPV
In series [13] the test system is HepG2. In words: Cytotoxicity against human HepG2 cells at 1 to 100 uM incubated for 20 hrs under serum free condition by neutral red uptake assay. Particulars: hepg2, 20 h. It is filed as cell-based.
The target in series [14] is T3, Alpha-1A adrenergic receptor (Homo sapiens) (UniProt P35348).
T3 sequence (whole entry): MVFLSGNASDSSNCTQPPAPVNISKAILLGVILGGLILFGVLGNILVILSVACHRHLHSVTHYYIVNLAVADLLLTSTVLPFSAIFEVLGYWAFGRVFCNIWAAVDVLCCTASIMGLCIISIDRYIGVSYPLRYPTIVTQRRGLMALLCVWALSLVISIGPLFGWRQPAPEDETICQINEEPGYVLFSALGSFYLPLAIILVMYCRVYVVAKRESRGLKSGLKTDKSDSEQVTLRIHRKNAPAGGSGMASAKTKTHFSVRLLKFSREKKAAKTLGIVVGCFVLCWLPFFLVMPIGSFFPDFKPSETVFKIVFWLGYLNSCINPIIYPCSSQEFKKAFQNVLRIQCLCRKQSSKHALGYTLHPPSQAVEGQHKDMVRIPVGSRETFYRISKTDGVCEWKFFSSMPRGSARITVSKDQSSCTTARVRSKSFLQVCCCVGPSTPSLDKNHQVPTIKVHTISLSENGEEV
In words: Binding affinity to alpha 1a adrenergic receptor (unknown origin) at 1 uM relative to control.

Series [15] deals with T4, 5-hydroxytryptamine receptor 1A (Homo sapiens) (UniProt P08908).
T4 sequence (whole entry): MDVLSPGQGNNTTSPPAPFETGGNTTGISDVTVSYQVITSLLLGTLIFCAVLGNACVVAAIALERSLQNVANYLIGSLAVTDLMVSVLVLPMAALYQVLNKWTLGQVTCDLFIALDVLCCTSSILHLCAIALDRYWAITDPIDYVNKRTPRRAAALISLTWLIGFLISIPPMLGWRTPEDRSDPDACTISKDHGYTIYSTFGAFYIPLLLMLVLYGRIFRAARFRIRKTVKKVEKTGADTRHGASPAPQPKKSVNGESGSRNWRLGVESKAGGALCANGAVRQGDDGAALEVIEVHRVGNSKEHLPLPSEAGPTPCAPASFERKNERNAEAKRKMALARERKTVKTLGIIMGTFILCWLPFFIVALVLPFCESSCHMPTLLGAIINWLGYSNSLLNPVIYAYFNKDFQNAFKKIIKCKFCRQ
Kind of series: Binding affinity to 5-HT1AR (unknown origin) at 1 uM relative to control.

Active and inactive are the calls of the source. No cut-off for these calls is given here.

Sequence of Cytochrome P450 3A4 (P08684 whole entry): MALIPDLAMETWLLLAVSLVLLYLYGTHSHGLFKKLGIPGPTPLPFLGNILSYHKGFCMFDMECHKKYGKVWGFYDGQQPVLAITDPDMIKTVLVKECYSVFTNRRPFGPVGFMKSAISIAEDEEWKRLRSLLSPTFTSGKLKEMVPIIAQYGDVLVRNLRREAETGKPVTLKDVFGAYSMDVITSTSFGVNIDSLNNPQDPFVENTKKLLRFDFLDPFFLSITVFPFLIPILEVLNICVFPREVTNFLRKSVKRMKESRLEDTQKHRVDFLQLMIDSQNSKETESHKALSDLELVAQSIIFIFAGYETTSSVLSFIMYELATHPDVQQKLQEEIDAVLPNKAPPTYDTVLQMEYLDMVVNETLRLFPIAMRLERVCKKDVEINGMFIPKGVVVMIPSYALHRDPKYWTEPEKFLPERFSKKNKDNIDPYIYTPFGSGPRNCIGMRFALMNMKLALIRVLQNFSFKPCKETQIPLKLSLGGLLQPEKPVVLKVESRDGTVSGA
Sequence of Sigma non-opioid intracellular receptor 1 (Rattus norvegicus) (Q9R0C9 whole entry): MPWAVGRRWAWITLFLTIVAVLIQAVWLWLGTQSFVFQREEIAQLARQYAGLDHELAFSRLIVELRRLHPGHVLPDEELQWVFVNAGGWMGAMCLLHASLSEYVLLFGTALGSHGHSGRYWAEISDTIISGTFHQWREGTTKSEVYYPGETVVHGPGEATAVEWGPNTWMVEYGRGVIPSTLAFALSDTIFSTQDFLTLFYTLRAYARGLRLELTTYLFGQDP
Sequence of CYP2D6 (P10635 whole entry): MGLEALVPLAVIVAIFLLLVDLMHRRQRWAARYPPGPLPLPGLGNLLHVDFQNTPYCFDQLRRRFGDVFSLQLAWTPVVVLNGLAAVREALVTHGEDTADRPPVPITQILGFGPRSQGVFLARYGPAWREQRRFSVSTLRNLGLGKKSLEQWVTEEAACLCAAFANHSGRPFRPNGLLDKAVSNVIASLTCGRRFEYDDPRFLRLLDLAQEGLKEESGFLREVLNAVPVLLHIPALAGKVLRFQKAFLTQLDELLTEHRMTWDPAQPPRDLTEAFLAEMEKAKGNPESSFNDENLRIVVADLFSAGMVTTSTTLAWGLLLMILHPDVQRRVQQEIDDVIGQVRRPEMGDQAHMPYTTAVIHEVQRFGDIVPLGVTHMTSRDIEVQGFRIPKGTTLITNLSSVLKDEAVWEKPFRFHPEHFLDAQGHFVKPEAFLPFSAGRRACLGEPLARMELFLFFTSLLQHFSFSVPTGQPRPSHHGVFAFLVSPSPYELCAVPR
Sequence of Sodium-dependent dopamine transporter (Homo sapiens) (Q01959 whole entry): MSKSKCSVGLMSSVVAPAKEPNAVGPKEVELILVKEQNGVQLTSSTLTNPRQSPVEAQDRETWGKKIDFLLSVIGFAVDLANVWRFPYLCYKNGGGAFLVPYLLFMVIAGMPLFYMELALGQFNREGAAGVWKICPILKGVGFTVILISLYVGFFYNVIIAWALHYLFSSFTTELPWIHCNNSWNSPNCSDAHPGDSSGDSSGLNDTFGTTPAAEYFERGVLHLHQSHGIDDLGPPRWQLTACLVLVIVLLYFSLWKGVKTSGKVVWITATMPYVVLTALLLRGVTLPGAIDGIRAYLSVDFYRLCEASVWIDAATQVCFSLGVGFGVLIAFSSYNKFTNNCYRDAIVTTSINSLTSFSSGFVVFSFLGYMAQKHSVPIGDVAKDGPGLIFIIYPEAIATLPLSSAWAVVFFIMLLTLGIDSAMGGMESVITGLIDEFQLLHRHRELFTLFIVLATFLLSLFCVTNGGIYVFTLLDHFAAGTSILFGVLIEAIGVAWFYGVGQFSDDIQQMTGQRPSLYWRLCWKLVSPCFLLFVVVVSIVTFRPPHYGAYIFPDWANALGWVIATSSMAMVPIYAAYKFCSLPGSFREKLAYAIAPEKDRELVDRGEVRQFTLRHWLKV
Sequence of Sigma non-opioid intracellular receptor 1 (Q60492 whole entry): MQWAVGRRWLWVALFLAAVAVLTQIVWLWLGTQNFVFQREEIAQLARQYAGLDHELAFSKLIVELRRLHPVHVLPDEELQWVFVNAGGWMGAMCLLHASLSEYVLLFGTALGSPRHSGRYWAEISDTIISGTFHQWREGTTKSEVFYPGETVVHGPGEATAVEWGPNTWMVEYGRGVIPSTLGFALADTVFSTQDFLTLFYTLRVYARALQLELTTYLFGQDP

Turning to `COC1Cc2ccccc2[C@]2(CC[C@H](N(C)CC3CCCCC3)CC2)O1` (some centres undefined), the “inhibition (INH)” value on Cytochrome P450 3A4, at Cytochrome P450 1A2 and at Cytochrome P450 2C9 was “Not Active” each time. Also, the Ki was 1.9 nM in series [1], 364 nM in series [2], 13 nM in series [4] and 12 nM in series [10]. In addition, the Activity result was “Non-Toxic” in the series with HepG2 [3]; 62% in series [8]; “Non-Toxic” with HepG2 [13]; 68% in series [14]; 60% in [15]. In addition, the result in [5], in series [7] and in series [11] was inactive. For the same molecule, the remaining at 1 h, 1 µM in series [6] was over 50%. Moreover, the Ratio Ki in [9] fell in the range of 5 to 10. On CYP2D6, the inhibition at 1 µM was over 90%. The molecule also displayed an inhibition in [12] of 0%.

What is called Ki is a dissociation constant, usually derived from enzyme kinetics or from competition with a known ligand. As usually defined, the inhibition is the percentage by which the read-out fell short of the control.
